One substance from patent US10690666B2, “Methods and compositions for modulating TH-GM cell function” (National University of Singapore, priority 2014, dated 2020) can be followed below.

The experiment has as its system AIA mice. The experiment is described as follows: Antigen-induced arthritis (AIA) model. The format is in vivo, mouse. The text has this: FIGS. 25A-25E depict distinguishable effects of GM-CSF and TNF-α in mouse AIA. […] Data are representative of more than three independent experiments. Representative images of joint sections stained with H&E (FIG. 25C) or Safranin-O/Fast Green (FIG. 25D) at day 7 after arthritis induction as in FIG. 25C. Bars, 500 μm (FIG. 25C upper panels and FIG. 25D) or 100 μm (FIG. 25C lower panels). Arrow in upper panels (FIG. 25C) indicated bone destruction. In FIG. 25E, serum concentrations of GM-CSF, IFN-γ and TNF-α in Stat5^+/+ and Stat5−/− AIA mice were quantified by ELISA. Statistics of n>=8 per group were shown. *p<0.05, **p<0.01, ***p<0.001.
FIGS. 28A-28G depicts STAT5-regulated GM-CSF-producing TH cells are crucial for AIA. Spleens and synovial tissues were collected from Stat5^+/+ and Stat5^−/− mice at day 7 after arthritis induction. (FIG. 28A) Splenic fractions of wild-type AIA mice (n=3) were stimulated under indicated conditions for 18 h. GM-CSF levels in supernatant were quantified by ELISA. (FIGS. 28B-28D) Intracellular staining and flow cytometry of GM-CSF, IL-17 and IFN-γ in splenic CD4^+CD44^hi effector T cells (FIG. 28B) or in synovial infiltrating CD4^+ T cells (FIGS. 28C and 28D) after restimulation for 4 h with PMA/Ionomycin in the presence of Golgiplug. Representative images and statistics of n=5 (FIG. 28B, right panels) or n=3 (FIG. 28D, right panels) per group were shown. Data represent two independent experiments. (FIG. 28E) Protein expression of several proinflammatory cytokines in synovial tissues was measured by ELISA. (FIGS. 28F and 28G) Representative images of joint sections stained with H&E (FIG. 28F) or Safranin-O/Fast Green (FIG. 28G) at day 7 after intraarticular injection of mBSA alone to the right knee joints and mBSA supplemented with GM-CSF to the left knee joints. Bars, 500, 50 or 200 μm as indicated. Data represent two independent experiments.*p<0.05, **p<0.01, p<0.05, **p<0.01, ***p<0.001; ns, not significant. “Splenocytes” represent the left-most bars in each group, “splenocytes depleted of CD4+ T cells” represent the middle bars in each group, and “CD4+ T cells” represent the right-most bars in each group.
FIGS. 31A-31D depicts SAT5-induced GM-CSF expression mediates CD11b^+ cell accumulation in inflamed synovial tissues. (FIG. 31A) The frequencies of CD11b^+ cells in spleens of Stat5^+/+ and Stat5^−/− AIA mice were analyzed by flow cytometry. Statistics of n=3 per group (right panel) were shown. (FIG. 31B) Synovial tissues were harvested from Stat5^+/+ and Stat5^−/− mice at day 7 after arthritis induction, and dissociated into single cell suspensions. The percentage of CD11b^+ myeloid cells among CD45^+ fraction was analyzed by flow cytometry. Statistics of n=5 per group were shown in right panel. […]

[1] abbreviates: 100 ng intraarticular together with mBSA, day 7.

With “GM-CSF: granulocyte macrophage colony-stimulating factor (ImmunoTools) given intraarticularly or added to cell cultures”, under setting [1], the “cartilage depletion in Stat5−/− mice (Safranin-O/Fast Green)” value was “severe cartilage depletion” and the “synovial inflammation in Stat5−/− mice” value is reported as “efficiently restored synovial inflammation”. For the same substance, the “neutrophil accumulation in synovial compartments of STAT5-deficient mice” value (intraarticular administration during arthritis induction) was “efficiently restored neutrophil accumulation”. For the same substance, the “synovial CD11b+ cell accumulation in STAT5-deficient mice” value (local administration during arthritis induction) is listed as “partially restored”.
